From PMC9014320 (Computational and Structural Biotechnology Journal, 2022)

Experiments:
P2X4 = details: cited from earlier work
P2X5 = details: cited from earlier work
P2X2 = details: cited from earlier work
cP2X3^A196G = experiment: Patch-clamp recording of ATP current, cP2X3 A196G in HEK293 cells; type: cell-based, chicken; details: AF-219 30 μM
cP2X3^WT = experiment: Patch-clamp recording of ATP current, cP2X3 WT in HEK293 cells; type: cell-based, chicken; details: AF-219 30 μM
P2X7 = details: cited from earlier work
P2X3 receptors = details: read-out: IC50, the concentration yielding half of the maximal inhibition; cited from earlier work
rP2X3^L191A = details: cited from earlier work
P2X1 = details: cited from earlier work
rP2X2^gain = rP2X2^gain versus rP2X3^WT

Row | SMILES | IC50 (P2X4) [µM] | IC50 (P2X5) [µM] | IC50 (P2X2) [µM] | Effect on the ATP (10 μM)-current of cP2X3^A196G (cP2X3^A196G) | Effect on the ATP (10 μM)-current of cP2X3^WT (cP2X3^WT) | IC50 (P2X7) [µM] | IC50 (P2X3 receptors) [µM] | Inhibition of rP2X3^L191A (rP2X3^L191A) | IC50 (P2X1) [µM] | Fold increase of IC50 for rP2X2^gain over rP2X3^WT (rP2X2^gain) [fold]
1 | COc1cc(C(C)C)c(Oc2cnc(N)nc2N)cc1S(N)(=O)=O [AF-219] | > 10 | > 10 | > 10 | significantly inhibited | no inhibitory effect | > 10 | 0.0426 ± 0.0029 | almost fully abolished the inhibition | > 10 | 
2 | CCC(C)c1cc(OC)c(Cl)cc1Oc1cnc(N)nc1N (stereo not shown) [AF-219-2, 5-(2-(sec-butyl)-5-chloro-4-methoxyphenoxy)pyrimidine-2,4-diamine] |  |  |  |  |  |  |  |  |  | 18
